In general, EC50 refers to the midpoint of the concentration-response curve.

These results are taken from patent US10351594B2, “Process for preparing compounds having triple activities of thrombolysis, antithrombosis, and radical scavenging” (Shanghai Lumosa Therapeutics Co., Ltd., priority 2013, dated 2019).

Assay [1] is described as follows: Hydroxyl free radical scavenging activity (DMPO signal peak height). Format: biochemical. The following applies: n = 6; read-out: EC50 of scavenging •OH. The method, then:
11.316 mg DMPO ([…], Sigma) was dissolved in 1 mL of pure water to obtain 0.1 M DMPO solution. […] FeSO4.7H2O was dissolved in 1 mL of pure water to obtain 10 mM solution. 30% medical H2O2 was diluted to 0.2%.
The first peak height of the OH signal of 2.5 μL FeSO4.7H2O solution+2.5 μL DMPO solution+5 μL H2O2 solution+5 μL water was measured and repeated for 6 times. This peak height defined as the known peak height of OH signal. The first peak height of the OH signal of 2.5 μL FeSO4.7H2O solution+2.5 μL DMPO solution+5 μL H2O2 solution+5 μL solution of one of the compounds 5Aa-p was measured and repeated for 6 times. This peak height defined as the residual peak height of the OH signal scavenged by one of the compounds 5Aa-p. Scavenging ratio=(known peak height of OH signal−residual peak height of OH signal of compounds 5Aa-p)/known peak height of OH signal

Assay [2] can be described thus: Superoxide anionic radical scavenging activity (xanthine/xanthine oxidase, DMPO). As to conditions: n = 6. Format: biochemical. As for the experimental part:
[…] xanthine was dissolved in 1 mL of pure water to obtain 0.5 M xanthine solution (milk white color, largely insoluble). Commercially available raw solution of xanthine oxidase was diluted 10 folds to obtain solution of xanthine oxidase. Saturated DETAPAC solution was diluted 20 folds to obtain 0.9 mM solution. 11.316 mg DMPO was dissolved in 1 mL of pure water to obtain 0.1 M DMPO solution.
5 μL DMPO solution+5 μL DETAPAC solution+5 μL xanthine solution+5 μL xanthine oxidase solution+5 μL compounds 5Aa-p solution
The first peak height of superoxide anion signal of 5 μL DMPO solution+5 μL DETAPAC solution+5 μL xanthine solution+5 μL xanthine oxidase solution+5 μL water was measured and repeated for 6 times. This peak height defined as the known peak height of superoxide anion signal. The first peak height of superoxide anion signal of 5 μL DMPO solution+5 μL DETAPAC solution+5 μL xanthine solution+5 μL xanthine oxidase solution+5 μL solution of one of compounds 5Aa-p was measured and repeated for 6 times. This peak height defined as the residual peak height of the superoxide anion signal scavenged by one of the compounds 5Aa-p. Scavenging ratio=(known peak height of superoxide anion signal−residual peak height of superoxide anion signal of compounds 5Aa-p)/known peak height of superoxide anion signal

For assay [3], the system named is thrombus (rat arteriovenous bypass thrombolysis model). As to the kind of experiment: Thrombolytic activity via intravenous administration, rat arteriovenous bypass thrombolysis model. The following applies: rat; for Weight reduction in thrombus: intravenous injection, 5Aa-p 0.1 nmol/kg, 1 hour, n = 10. Format: in vivo, male SD rats. As for the experimental part: 200-220 g male SD rats were anesthetized with 20% urethane solution (6 mL/kg, ip). Anesthetized rats were fixed in a supine position, and the right common carotid artery was separated, clamped at the proximal end with an arterial clip, and penetrated with a suture at the proximal and distal ends, respectively. The suture at the distal end is clipped tightly by a hemostatic clamp at the skin/fur. Cannulation was performed at the distal end, the arterial clamp was loosened, and about 1 ml arterial blood was discharged into a 1 mL EP vial. 0.1 mL rat arterial blood was injected into a vertically fixed glass tube (15 mm in length, with an inner diameter of 2.5 mm and an outer diameter of 5.0 mm, sealed with a rubber stopper at the bottom), into which was immediately inserted a thrombus immobilization screw made of stainless steel. […] 40 min after the blood coagulated, the rubber stopper at the bottom of the glass tube was removed, the stem of the thrombus immobilization screw was fixed by forceps, and the thrombus-wrapped thrombus immobilization screw was carefully taken out from the glass tube and precisely weighted.
A bypass cannula was composed of 3 segments. The middle segment was a polyethylene tube having a length of 60 mm and an inner diameter of 3.5 mm. The segments on both ends were similar polyethylene tubes having a length of 100 mm, an inner diameter of 1 mm and an outer diameter of 2 mm, one end of which was pulled to form a tip, with an outer diameter of 1.0 mm (used in inserting into the rat carotid artery or vein), the other end of which was sheathed by a polyethylene tube having a length of 7 mm and an outer diameter of 3.5 mm (thickened, used in inserting into the polyethylene tube of the middle segment). The inner wall of the 3-segment cannula was entirely silylated. The thrombus-wrapped thrombus immobilization screw was placed into the polyethylene tube of the middle segment, and both ends of the tube sheath the thickened ends of two polyethylene tubes. The cannula was filled with a heparin solution in normal saline (50 IU/kg) through the tip end by using an injector and was ready for use.
The left external jugular vein of the rat was separated and penetrated with a suture at the proximal and distal ends respectively, and the distal end was ligated. An incision was carefully made on the exposed left external jugular vein, and the tip of the bypass cannula prepared as described above was inserted into the proximal end of the incision in the left external jugular vein, away from the stem of the thrombus immobilization screw in the middle segment of the bypass cannula (which accommodated the accurately weighed thrombus immobilization screw). A precise amount of heparin in saline (50 IU/kg) was injected through the tip at the other end by using an injector. At this moment, without removing the injector from the polyethylene tube, the tube between the injector and the polyethylene tube was clamped with a hemostatic clamp. The blood flow was stopped by clamping the proximal end of the right common carotid artery with an arterial clip, and an incision was cut carefully across the common carotid artery near the clip. The injector was pulled out of the polyethylene tube through the tip, and the tip of the polyethylene tube was then inserted into the proximal end of the artery incision. Both ends of the bypass cannula were fixed to the artery or vein with #4 sutures.
A scalp needle was used to pass saline solution, a urokinase in saline solution or varied concentrations of the compounds in saline solution through the middle section of the bypass cannula (which accommodated the accurately weighed thrombus immobilization screw) to a position at the proximal vein and away from the thrombus immobilization screw. The artery clip was then removed to allow blood to flow from the artery to the vein through the bypass cannula. A rat arteriovenous bypass thrombolysis model was thus established. […]

Structures are written as SMILES. Marks after values point to notes of the source that are not given here.

As for `C[C@H](NC(=O)[C@@H]1CCCN1)C(=O)N[C@@H](CC(N)=O)C(=O)NCCCC[C@H](NC(=O)[C@@H]1Cc2cc(O)c(O)cc2C(C)(C)N1)C(=O)O` [Compound 5An, 3S-6,7-dihydroxy-1,1-dimethyl-1,2,3,4-tetrahydro-isoquinoline-3-acyl-Lys(Pro-Ala-Asn)], the results for the EC50 in assay [1] and in assay [2] were 572 ± 72 µM and 383 ± 94 µM, respectively. For the same compound, in assay [3], the “Weight reduction in thrombus” value was 16.44 ± 2.32^a mg.

With `C[C@H](NC(=O)[C@@H]1CCCN1)C(=O)N[C@@H](CC(=O)O)C(=O)NCCCC[C@H](NC(=O)[C@@H]1Cc2cc(O)c(O)cc2C(C)(C)N1)C(=O)O` [Compound 5Ao, 3S-6,7-dihydroxy-1,1-dimethyl-1,2,3,4-tetrahydro-isoquinoline-3-acyl-Lys(Pro-Ala-Asp)], the EC50 in assay [1] was found to be 396 ± 48 µM; in assay [2], 435 ± 65 µM. Besides, the “Weight reduction in thrombus” value in assay [3] is 15.86 ± 2.21^a mg. Moreover, in assay [3] (intravenous, 0.1 nmol/kg (5Ak also 0.01 and 0.001 nmol/kg), urokinase 20000 U/kg), the “Thrombolytic activity, result in words” value was “comparable to that of urokinase”.

Take `C[C@H](NC(=O)[C@@H]1CCCN1)C(=O)N[C@@H](CCC(=O)O)C(=O)NCCCC[C@H](NC(=O)[C@@H]1Cc2cc(O)c(O)cc2C(C)(C)N1)C(=O)O` [Compound 5Ap, 3S-6,7-dihydroxy-1,1-dimethyl-1,2,3,4-tetrahydro-isoquinoline-3-acyl-Lys(Pro-Ala-Glu)]: the values for the EC50 in assay [1] and in assay [2] were 400 ± 51 µM and 420 ± 73 µM, respectively. In assay [3], the “Weight reduction in thrombus” value is 16.03 ± 2.14^a mg.
